# Measured values as given in patent US7678812B2, “Aminotetralin-derived urea modulators of vanilloid VR1 receptor” (Janssen Pharmaceutica NV, priority 2002, dated 2010).
# Where “and” joins values, the source holds several entries; their conditions need not be identical. Identical values can stand only once. Like-named read-outs stand apart in the source and are kept apart here.
# Tests used:
# hVR1 receptors [1] = molecular target: T1, hVR1 receptors (Homo sapiens, UniProt Q8NER1); assay: Broadly stimulated recombinant human VR1 functional assay (Ca2+ influx, FLIPR); format: cell-based; design: expressed in transfected cells; host or cells: HEK293
# Rat VR1 [2] = molecular target: T2, Rat VR1 (Rattus norvegicus, UniProt O35433); assay: Broadly stimulated recombinant rat VR1 functional assay (Ca2+ influx, FLIPR); format: cell-based; design: expressed in transfected cells
# Excerpt: When nociceptors are exposed to tissue damaging stimuli, VR1 receptors are activated by a plethora of stimuli. In an effort to identify potent and efficacious antagonists at human and rat VR1 that were active under conditions simulating aspects of in vivo inflammation functional assays were developed using FLIPR to determine antagonist activity against endogenous activators and stimuli likely to be present in inflammation. Cell lines were constructed that stably expressed recombinant rat VR1 (rVR1/HEK293). Cells were exposed to various stimuli at their EC80, with the exception of the low pH and DTT stimuli.
# Phoshorylation by PKC. […] Cells were challenged with 300 nM PMA (˜EC80) after 3 min in the indicated antagonist.
# Anandamide. Anandamide is a brain-derived cannabinoid ligand that acts as a near full agonist at VR1 at low μM concentrations [Smart, 2000 #507].
# Reactive oxygen species: Disturbances in the regulatory activities of free radicals may play a role in inflammation [Winrow, 1993]. Reactive oxygen species (ROS) such as H2O2 are formed in inflamed joints.
# Reducing agents: The reducing agent DTT also directly activates VR1 [Vyklicky, 2002]. Cells were challenged with 5-10 mM DTT to stimulate VR1 after 3 min incubation in compound.
# Since many of our animal models were in rat, we cloned the rat VR1 and expressed it stably in HEK293 cells.
# [3] = tested on: capsaicin-induced guinea pig bronchial ring contraction; assay: Isolated guinea pig bronchial rings, capsaicin-induced contraction (organ bath); settings: capsaicin concentration-response shift; 105 at 1000 nM; ±SEM
# Method: Aminotetralin VR1 antagonists were tested for their potency to block capsaicin-induced guinea pig bronchial ring contraction in a standard in vitro organ bath assay [Tucker, 2001]. Two mm rings of bronchial tissue obtained from male guinea pigs (325 g) were suspended in normal Krebs solution between two wire hooks under an initial loading tension of 1 gram. The saline was maintained in a 5% CO2 and 95% O2 atmosphere at 37° C. in the presence of indomethacin (5 μM). A sub-maximal dose of 5-Methylfurmethide (5Mef, 1 μM) was added to each tissue to determine responsiveness using an isometric force transducer. After washout, tissues were exposed to compounds or vehicle for 30 min, treated with thiorphan (10 μM, 5% Na2CO3), and primed using KCl in increasing linear concentrations from 1 mM at 1 mM intervals until a slight increase in muscle tone was induced (˜1% of 5Mef response). […] The dose response curve was calculated as % max of the 5-Mef response and estimated pA2 were determined [Tucker, 2001]).
# hVR1 receptors [4] = molecular target: T1, hVR1 receptors; assay: [3H] RTX binding assay, human VR1; design: expressed in transfected cells; host or cells: HEK293 (membrane preparation); settings: inhibition of [3H] RTX binding, membranes of HEK293 cells transfected with human VR1
# Method: Compounds of the present invention were tested for their ability to inhibit the binding of [^3H] RTX to hVR1 receptors in a [^3H] RTX binding assay as previously described (Zhang, Sui-Po. Improved ligand binding assays for vanilloid receptors. PCT Int. Appl. (2002), 29 pp. CODEN: PIXXD2 WO 0233411 A1 20020425 AN 2002:315209; Grant, Elfrida R.; Dubin, Adrienne E.; Zhang, Sui-Po; Zivin, Robert A.; Zhong, Zhong Simultaneous intracellular calcium and sodium flux imaging in human vanilloid receptor 1 (VR1)-transfected human embryonic kidney cells: a method to resolve ionic dependence of VR1-mediated cell death. Journal of Pharmacology and Experimental Therapeutics (2002), 300(1), 9-17.)
# HEK293 cells were transfected with human VR1 vanilloid receptors and washed with Hank's Balanced Salt Solution, dissociated with cell dissociation buffer (Sigma), and then centrifuged at 1000×g for 5 min. Cell pellets were homogenized in cold 20 mM HEPES buffer, pH 7.4, containing 5.8 mM NaCl, 320 mM sucrose, 2 mM MgCl2, 0.75 CaCl2 and 5 mM KCl and centrifuged at 1000×g for 15 min. The resultant supernate was then centrifuged at 40000×g for 15 min. The pelleted membranes were kept in an −80° C. freezer.
# Approximately 120 μg protein/ml from membranes were incubated with indicated concentrations of [^3H] RTX in 0.5 ml of the HEPES buffer (pH 7.4) containing 0.25 mg/mL fatty acid-free bovine serum albumin at 37° C. for 60 min. The reaction mixture was then cooled to 4° C., 0.1 mg α1-acid glycoprotein added to each sample and incubated at 4° C. for 15 min. The samples were centrifuged at 18500×g for 15 min. The tip of the microcentrifuge tube containing the pellet was cut off. Bound radioactivity was quantified by scintillation counting. Non-specific binding was tested in the presence of 200 nM unlabeled RTX.
# [5] = tested on: carrageenan paw-induced thermal hyperalgesia; assay: Carrageenan paw-induced thermal hyperalgesia; format: in vivo, rat; settings: Rattus norvegicus, po
# Method: Each rat was placed on a heated surface (51° C.) in order to measure the time necessary to elicit a response, and an initial (baseline) response time to a thermal stimuli was recorded for each animal. A response is defined as any shaking, licking, or tucking of the treated paw or jumping. Animals not treated with a test compound respond in approximately 20 seconds. The maximal exposure time permitted is 60 seconds to prevent tissue damage. Rats were injected with an irritant (e.g., 1% carrageenan solution in 0.9% saline) subcutaneously into the sub-plantar tissue of the left hind paw to stimulate an acute inflammatory reaction.
# Two hours later, the response time of the animal to the thermal stimulus was evaluated and compared to the animal's baseline response time. This shorter response time was recorded as percent hyperalgesia (% H). A cut-off value for % H (usually 75%) was used during analysis to ensure that the animals were hyperalgesic. Animals were then dosed with test drug or vehicle.
# At some time(s) later (typically 45 and 90 minutes), the response time of the animal to the thermal stimulus was again evaluated. For each time point, a percent reversal of hyperalgesia (% R) was calculated using the following formula: % R=(Drug Latency−Carrageenan latency)/(Baseline latency−Carrageenan latency). ED50 values were calculated from % R obtained at several drug doses.
# [6] = molecular target: T3, VR1 expressed endogenously on small rat dorsal root ganglion (DRG) neurons (Rattus norvegicus, UniProt O35433); assay: Electrophysiologic functional assay using dissociated rat DRG cells (whole cell patch clamp); format: cell-based; settings: compound concentration 1 uM; initial response to 0.3 uM capsaicin
# T3 construct: VR1 expressed endogenously on small rat dorsal root ganglion (DRG) neurons; endogenous in cells; host or cells: dissociated DRG neurons from normal rats
# Method: Compounds 42, 95, 101, 105 and 106 were tested for their activity on VR1 expressed endogenously on small rat dorsal root ganglion (DRG) neurons. DRG neurons from normal rats were dissociated (see methods in Chaplan et al., 2003) and whole cell currents mediated by VR1 were recorded using the whole cell patch clamp technique. […] This was followed by application of 10 μM CAP in the presence of compound. […] The ability of 1 and 10 μM CAP to cause an increased current after exposure to a compound of the invention was compared to controls.
# Rat VR1 [7] = molecular target: T2, Rat VR1; assay: [3H]-RTX binding assay using rat tissue (spinal cord); design: Rat spinal cord was homogenized twice with a Polytron; from tissue; host or cells: rat spinal cord membranes; settings: rat spinal cord membranes
# Method: Alternatively, a binding assay using rat tissue was used. Rat spinal cord was homogenized twice with a Polytron and centrifuged at 3000 rpm for 10 min in HEPES buffer containing 20 mM HEPES, pH 7.4, NaCl 5.8 mM, sucrose 320 mM, MgCl2 2 mM, CaCl2 0.75 mM and KCl 5 mM. The supernatant was then centrifuged at 18,000 rpm for 20 min. The pellet was saved in a tube and 10 ml assay buffer was added into the tube. The pellet and buffer were mixed with a Polytron. The assay contained 120 μg/ml membrane protein and 0.3-0.6 nM [^3H]-RTX (NEN, Boston) in a total volume of 0.5 ml HEPES buffer. Following-incubation for 60 min at 37 C, the samples were cooled down on ice, and 100 mg of α-acid glycoprotein were added into the samples. After centrifugation at 13,000 rpm for 15 min, the supernatant was aspirated and the tips of tubes were cut off and placed into 6 ml vials. Data were calculated according to the equation: % inhibition=(total binding−binding)*100/(total binding−non specific binding). Ki value values were calculated using a Prism program.
# [8] = tested on: capsaicin-induced cough responses; assay: Capsaicin-induced cough (antitussive efficacy); format: in vivo, guinea pig; settings: codeine 25 mg/kg IP at -60 min; capsaicin aerosol 15 μM; vehicle 3.0±0.5; P<0.001
# Method: The antitussive activity of intraperitoneally (IP) administered compound is assessed at a single dose level against capsaicin-induced cough responses as compared to positive and vehicle controls. Thirty-six male Dunkin-Hartley guinea pigs (295-590 g, mean=425 g) are randomly allocated to one of three groups (n=12 guinea pigs per group). […] Guinea pigs are dosed IP at —60 min with vehicle (15% Solutol in 5% dextrose solution); the positive control codeine (25 mg/kg), or test compound (20 mg/kg in 15% Solutol in 5% dextrose solution). Individual guinea pigs are placed in an exposure chamber with an airflow of 3 L/min at —10 min to acclimatize. […] The mean ±SEM number of capsaicin-induced cough responses recorded in vehicle pre-treated guinea pigs was 3.0±0.5. […] ANOVA statistical analysis was used to determine the level of significance.
# T1 sequence (Q8NER1 whole entry): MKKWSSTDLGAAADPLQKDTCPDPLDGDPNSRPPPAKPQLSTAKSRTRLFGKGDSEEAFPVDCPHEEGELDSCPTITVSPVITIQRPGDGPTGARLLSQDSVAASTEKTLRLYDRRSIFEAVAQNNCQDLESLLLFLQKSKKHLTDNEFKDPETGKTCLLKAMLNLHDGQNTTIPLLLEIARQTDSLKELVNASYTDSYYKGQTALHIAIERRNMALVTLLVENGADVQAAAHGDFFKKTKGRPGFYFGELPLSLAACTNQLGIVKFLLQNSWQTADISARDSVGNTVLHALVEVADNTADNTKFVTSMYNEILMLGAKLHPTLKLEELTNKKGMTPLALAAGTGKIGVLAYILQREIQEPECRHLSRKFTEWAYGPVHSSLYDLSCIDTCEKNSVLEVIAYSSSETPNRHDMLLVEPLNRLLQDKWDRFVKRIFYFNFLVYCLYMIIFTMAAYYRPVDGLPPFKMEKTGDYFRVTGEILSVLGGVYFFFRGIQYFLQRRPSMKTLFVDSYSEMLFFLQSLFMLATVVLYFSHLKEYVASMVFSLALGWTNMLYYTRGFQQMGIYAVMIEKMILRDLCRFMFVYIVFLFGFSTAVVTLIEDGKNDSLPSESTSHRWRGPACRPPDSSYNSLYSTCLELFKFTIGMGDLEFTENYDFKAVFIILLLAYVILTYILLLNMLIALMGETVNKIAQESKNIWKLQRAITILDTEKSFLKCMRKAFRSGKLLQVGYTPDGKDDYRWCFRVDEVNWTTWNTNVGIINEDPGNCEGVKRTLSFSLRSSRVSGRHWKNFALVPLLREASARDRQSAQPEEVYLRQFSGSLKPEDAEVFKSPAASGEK
# T2 sequence (O35433 whole entry): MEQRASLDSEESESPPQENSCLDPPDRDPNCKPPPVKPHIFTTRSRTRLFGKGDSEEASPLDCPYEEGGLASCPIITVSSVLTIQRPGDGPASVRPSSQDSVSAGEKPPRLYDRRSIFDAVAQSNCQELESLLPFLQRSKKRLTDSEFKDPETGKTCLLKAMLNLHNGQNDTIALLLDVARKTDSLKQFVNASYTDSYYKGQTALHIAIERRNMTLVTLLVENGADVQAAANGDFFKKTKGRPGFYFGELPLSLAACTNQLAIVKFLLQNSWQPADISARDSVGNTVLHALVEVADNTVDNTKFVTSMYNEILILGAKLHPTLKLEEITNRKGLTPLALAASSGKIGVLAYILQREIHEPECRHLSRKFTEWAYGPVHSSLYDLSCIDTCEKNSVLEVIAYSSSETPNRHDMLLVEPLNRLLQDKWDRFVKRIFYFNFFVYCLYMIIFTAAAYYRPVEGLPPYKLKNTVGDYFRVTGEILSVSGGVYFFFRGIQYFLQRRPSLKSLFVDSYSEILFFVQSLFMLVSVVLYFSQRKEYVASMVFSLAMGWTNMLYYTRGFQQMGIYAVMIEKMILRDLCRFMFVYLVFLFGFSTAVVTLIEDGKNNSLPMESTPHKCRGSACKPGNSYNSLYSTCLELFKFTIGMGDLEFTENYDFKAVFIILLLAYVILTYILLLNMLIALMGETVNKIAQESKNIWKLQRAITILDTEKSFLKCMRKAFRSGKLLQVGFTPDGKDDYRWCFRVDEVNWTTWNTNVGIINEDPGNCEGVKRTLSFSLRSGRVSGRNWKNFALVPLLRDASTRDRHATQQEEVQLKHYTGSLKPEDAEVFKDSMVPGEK
# T3 sequence (O35433 whole entry): as above
smiles,measurement,setting,value
"COc1ccc2c(c1)CCC(NC(=O)Nc1cccc3cnccc13)C2Cc1ccccc1 (centres unmarked) [Compound 33, 1-(1-Benzyl-6-methoxy-1,2,3,4-tetrahydronaphthalene-2-yl)-3-isoquinolin-5-yl-urea]","increase in intracellular Ca2+ caused by acidic solutions, anandamide, PMA and H2O2","hVR1 receptors [1]; human recombinant VR1, 3 min incubation in antagonist, dose dependent",completely abolished
same,IC50,"hVR1 receptors [1]; recombinant human VR1, PMA at low pH, Ca2+ influx, read-out: IC50, PKC phosphorylation at low pH",0.07 µM
same,IC50,"hVR1 receptors [1]; recombinant human VR1, stimulus 0.015% H2O2, Ca2+ influx, read-out: IC50, H2O2 reactive oxygen species",0.039 µM
same,IC50,"hVR1 receptors [1]; recombinant human VR1, stimulus anandamide 10 μM, Ca2+ influx, read-out: IC50, Anandamide",0.041 µM
same,IC50,"hVR1 receptors [1]; recombinant human VR1, stimulus low pH (pH 6.5), Ca2+ influx, read-out: IC50, Low pH",0.023 µM and 0.04 µM
same,"increase in intracellular Ca2+ caused by acidic solutions, anandamide, PMA at low pH and H2O2","Rat VR1 [2]; rat recombinant VR1, 3 min incubation in antagonist, dose dependent",completely abolished
same,IC50,"Rat VR1 [2]; recombinant rat VR1, PMA at low pH, Ca2+ influx, read-out: IC50, PKC phosphorylation at low pH",0.047 µM
same,IC50,"Rat VR1 [2]; recombinant rat VR1, stimulus 0.015% H2O2, Ca2+ influx, read-out: IC50, H2O2",0.033 µM
same,IC50,"Rat VR1 [2]; recombinant rat VR1, stimulus anandamide 10 μM, Ca2+ influx, read-out: IC50, Anandamide",0.038 µM
same,IC50,"Rat VR1 [2]; recombinant rat VR1, stimulus low pH (pH 5.9), Ca2+ influx, read-out: IC50, Low pH",0.17 µM
same,Estimated pA2,[3],8.0 +/− 0.02
same,Ki,hVR1 receptors [4],0.00337 µM
same,ED50,"[5]; reversal of hyperalgesia, read-out: CgHP ED50",0.276 mg/kg
"O=C(Nc1cccc2cnccc12)NC1CCc2cc(F)ccc2C1Cc1ccccc1 (racemic) [Compound 38a, 1-(1-Benzyl-6-fluoro-1,2,3,4-tetrahydronaphthalene-2-yl)-3-isoquinolin-5-yl-urea]",Estimated pA2,[3],8.0 and 8.0±0.02
same,Ki,hVR1 receptors [4],0.00176 µM
"O=C(Nc1cccc2c(Cl)nccc12)NC1CCc2cc(F)ccc2C1Cc1ccccc1 (single isomer, unassigned) [Compound 105]",Estimated pA2,[3],6.2 and 6.2±0.11 and 6.2 +/− 0.11
same,Ki,hVR1 receptors [4],0.0108 µM
same,% of the initial CAP response in presence of 1 uM CAP,[6],0% and 8%
same,ED50,"[5]; 1.5 h, p.o., at 90 min, read-out: ED50",0.394 mg/kg
same,Ki,Rat VR1 [7],4.92 µM
COc1ccc2c3c1O[C@H]1[C@@H](O)C=C[C@H]4[C@@H](C2)N(C)CC[C@@]341 [codeine],number of capsaicin-induced cough responses (mean ±SEM),[8],0.58±0.15 coughs
"CCCCCCCCCCCCCC(=O)O[C@@H]1[C@@H](C)[C@@]2(O)[C@@H](C=C(CO)C[C@]3(O)C(=O)C(C)=C[C@@H]23)[C@@H]2C(C)(C)[C@]12OC(C)=O [PMA, phorbol-12-myristate-13-acetate, reference compound]",EC50,"hVR1 receptors [1]; human recombinant VR1, increase in intracellular Ca2+, read-out: EC50 for PMA",0.09 µM
same,EC50,"Rat VR1 [2]; rat recombinant VR1, increase in intracellular Ca2+, read-out: EC50 for PMA",0.09 µM
